Laboratory results published in US20060046009A1, “Optical disk” (TDK Corporation, priority 2004, published 2006).

Test: Solubility of the cyanine dyes in 2,2,3,3-tetrafluoro-1-propanol
Format: physicochemical
Conditions: in 2,2,3,3-tetrafluoro-1-propanol (TFP)
Source text: FIGS. 1 and 2 are schematic fragmentary sectional views showing the vicinities of grooves in the optical disks according to Example 1 (counter ion: PF6^−) and Comparative Example 2 (counter ion: I^−), respectively. […] Thus, the optical disk in Example 1 has more uniform dye

Row | Structure (SMILES) | Solubility in TFP [mg/mL]
1 | CN1/C(=C/C=C/C2=[N+](C)c3c(ccc4ccccc34)C2(C)C)C(C)(C)c2cc(Cl)ccc21 [Example 1] | 15
2 | CN1/C(=C/C=C/C2=[N+](C)c3ccc4ccccc4c3C2(C)Cc2ccccc2)C(C)(C)c2c1ccc1ccccc21 (centres unmarked) [Example 2] | 8
